Entries after “also recorded” stand apart in the source; their conditions may differ.
Assays:
Mcl-1 knockout MEFs = assay type: cell-based; conditions: 15 h
Experimental: Cell viability was assessed using propidium iodide staining detected with flow cytometry. […] The percentage of dead cells was calculated using LIVE/DEAD fixable violet dead cell stain (VIVID) and detected with flow cytometry.

[1] = test system: Eμ-myc lymphoma cells overexpressing Bcl-2; assay: Cell death in Eμ-myc lymphoma cells overexpressing Bcl-2; assay type: cell-based, mouse; conditions: Eμ-myc lymphoma overexpressing Bcl-2, 15 h
Experimental: (§1) FIG. 5A-B: A) 483 induces Bax/Bak and Mcl-1 dependent cell death. Mouse Embryonic Fibroblasts (MEFs) were treated for 15 h with 483 and ABT263. Cell viability was assessed using propidium iodide staining detected with flow cytometry. […] Cells were treated for 15 h with increasing concentrations of (A) 483 and (B) ABT263. […] The percentage of dead cells was calculated using LIVE/DEAD fixable violet dead cell stain (VIVID) and detected with flow cytometry. (*) is p<0.001.
(§2) Wild-type, Bax/Bak double knockout and Mcl-1 knockout MEFs cells have been employed as models to establish the mechanism-based apoptosis and on-target activity (see, e.g., Lindsten, T., and Thompson, C. B. (2006) Cell death and differentiation 13, 1272-1276). […] The specificity of this class Mcl-1 inhibitors was further confirmed by using cell lines developed by retroviral transduction of lymphoma cells isolated from Eg-myc transgenic mice which survival depends on the expression of individual prosurvival protein.

[2] = biological target: T1, Mcl-1/BAK protein-protein interactions (Homo sapiens, UniProt Q07820); assay: Co-immunoprecipitation of Mcl-1 protein in Panc-1 cells; assay type: cell-based; conditions: different concentrations, Mcl-1 immunoprecipitation and Western blot
T1 construct: endogenous in cells; host or cells: Panc-1 cells
Text: FIG. 8: 483LM disrupts the Mcl-1/BAK protein-protein interactions in Panc-1 cell line.

Bcl-xL [3] = biological target: T2, Bcl-xL (Homo sapiens, UniProt Q07817); assay: Binding selectivity, Bcl-xL
wild-type MEFs = assay: Cell viability in wild-type MEFs; assay type: cell-based, mouse; conditions: 15 h, propidium iodide staining, flow cytometry
Experimental: as §1, §2

Bcl-2 = Bcl-2 (Homo sapiens, UniProt P10415); assay: Binding selectivity, Bcl-2
Panc-1 cells = assay: Cell growth inhibition of Panc-1 by MTT assay, ABT-263 with 483; assay type: cell-based
Text: FIG. 7: 483 synergizes with ABT-263 to kill Panc-1 cells.
As expected, ABT-263 had little effect on this cell line (FIG. 7).

[4] = test system: Eμ-myc lymphoma cells overexpressing Mcl-1; assay: Cell death in Eμ-myc lymphoma cells overexpressing Mcl-1; assay type: cell-based, mouse; conditions: Eμ-myc lymphoma overexpressing Mcl-1, 15 h, VIVID stain, flow cytometry
Experimental: as §1, §2

endogenous Mcl-1 protein = biological target: T3, endogenous Mcl-1 protein (Homo sapiens, UniProt Q07820); assay: Pull-down assay using biotin-labeled Noxa and 2LMP whole cell lysate; assay type: binding; conditions: Western blot with anti-Mcl-1 antibody
T3 construct: endogenous in cells; host or cells: 2LMP human breast cancer cells (whole cell lysate)
Experimental: FIG. 3: Mcl-1 inhibitors recognize and bind endogenous Mcl-1 protein. Biotin-labeled Noxa (BL-Noxa, […]) was incubated with whole cell lysates of 2LMP cells with or without tested Mcl-1 inhibitors and Bim BH3 peptide as a positive control, followed by incubation with precleared streptavidin agarose beads. Eluted beads were subjected to Western blot analysis with anti-Mcl-1 antibody.

Mcl-1 [5] = biological target: T4, Mcl-1 (Homo sapiens, UniProt Q07820); assay: FP based binding assay to Mcl-1 (Bid BH3 peptide probe)
Target sequence in this assay (Q07820 whole entry): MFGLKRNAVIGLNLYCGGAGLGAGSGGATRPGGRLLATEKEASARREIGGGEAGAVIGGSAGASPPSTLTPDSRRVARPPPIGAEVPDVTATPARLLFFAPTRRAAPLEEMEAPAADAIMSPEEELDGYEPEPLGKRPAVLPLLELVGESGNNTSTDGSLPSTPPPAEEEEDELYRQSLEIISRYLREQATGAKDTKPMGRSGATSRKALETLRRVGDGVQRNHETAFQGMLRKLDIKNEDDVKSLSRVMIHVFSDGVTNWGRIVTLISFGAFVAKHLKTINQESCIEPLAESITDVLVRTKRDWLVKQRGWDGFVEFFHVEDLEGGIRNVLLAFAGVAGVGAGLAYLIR

[6] = test system: Bax/Bak double knockout MEFs; assay: Cell viability in Bax/Bak double knockout MEFs; assay type: cell-based; conditions: 15 h
Experimental: as §1, §2

Bcl-xL [7] = biological target: T2, Bcl-xL; assay: Cell-free functional assay with purified mitochondria, Smac release, Bcl-xL; assay type: biochemical; conditions: concentrations as high as 9 μM
Text: To provide direct evidence that 483 and 487 also selectively antagonize Mcl-1 function, a cell-free functional assay was established using purified mitochondria, recombinant Mcl-1 and Bcl-xL proteins, and the BIM BH3 peptide which binds to both proteins with high affinities.

Bcl-w = biological target: T5, Bcl-w (Homo sapiens, UniProt Q92843); assay: Binding selectivity, Bcl-w
T5 sequence (Q92843 1-193): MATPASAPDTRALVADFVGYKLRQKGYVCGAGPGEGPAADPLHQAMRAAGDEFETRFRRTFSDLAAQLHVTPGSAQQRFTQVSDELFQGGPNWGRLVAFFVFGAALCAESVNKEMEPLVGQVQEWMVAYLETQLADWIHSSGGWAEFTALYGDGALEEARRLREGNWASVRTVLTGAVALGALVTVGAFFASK

Mcl-1 [8] = biological target: T4, Mcl-1; assay: HSQC NMR spectroscopy of binding to Mcl-1 protein; conditions: compound in complex with Mcl-1
Text: [drawing 85] with 5,6-difuran-2-yl-1,2,4-triazine core identified with high throughput screening (see, e.g., Du, Y., et al., Assay and drug development technologies 9, 382-393). […] The second furan ring has weak hydrophobic interaction with residues Phe 318 and Phe 319, which are located proximal to the conserved h4 pocket (FIG. 1). These two residues were identified that contribute to additional hydrophobic contacts with the staple of a reported stabilized α-helix (see, e.g., Stewart, M. L., et al., Nat Chem Biol 6, 595-601).
[drawing 86] was de-novo designed (FIG. 1). In the 368, one furan ring was replaced with carboxylate moiety in order to improve the conserved hydrogen bond, the other furan ring was replaced with phenylsulfonamido and the side chain was changed to phenethylthio substituent in order to allow further modification for improving hydrophobic interactions.
Target sequence in this assay (Q07820 whole entry): as the sequence (Q07820 whole entry) above

Mcl-1 [9] = biological target: T4, Mcl-1; conditions: cited from earlier work
Target sequence in this assay (Q07820 whole entry, species assumed): as the sequence (Q07820 whole entry) above

[10] = FP assay using Bid BH3 peptide as a probe

T2 sequence (Q07817 whole entry, species assumed): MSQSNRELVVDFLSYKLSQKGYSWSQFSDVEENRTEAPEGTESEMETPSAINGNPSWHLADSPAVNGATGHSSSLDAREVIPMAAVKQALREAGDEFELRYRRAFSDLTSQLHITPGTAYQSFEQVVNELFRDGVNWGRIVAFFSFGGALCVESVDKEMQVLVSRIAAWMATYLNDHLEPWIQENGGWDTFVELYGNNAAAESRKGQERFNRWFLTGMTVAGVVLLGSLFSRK
T1 sequence (Q07820 whole entry): as the sequence (Q07820 whole entry) above
Sequence of Bcl-2 (P10415 whole entry, species assumed): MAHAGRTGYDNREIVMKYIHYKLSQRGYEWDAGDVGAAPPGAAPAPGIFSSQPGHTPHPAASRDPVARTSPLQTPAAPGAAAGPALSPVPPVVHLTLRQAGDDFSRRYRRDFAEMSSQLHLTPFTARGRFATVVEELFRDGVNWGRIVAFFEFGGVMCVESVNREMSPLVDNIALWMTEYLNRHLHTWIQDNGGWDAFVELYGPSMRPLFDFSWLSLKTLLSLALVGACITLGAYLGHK
T3 sequence (Q07820 whole entry): as the sequence (Q07820 whole entry) above

## CC(C)c1cc(NC(=O)c2ccc(Oc3ccccc3)cc2)c(C(=O)O)cc1-c1ccc(COc2cccc(C(F)(F)F)c2)cc1 [Compound 483, 6-isopropyl-4-(4-phenoxybenzamido)-4′-((3-(trifluoromethyl)phenoxy)methyl)-[1,1′-biphenyl]-3-carboxylic acid]
Mcl-1 knockout MEFs
  cytotoxicity / growth-inhibitory activity: didn't show cytotoxicity
[1]
  effect on cells: did not show effect
[2]
  disruption of Mcl-1/Bak protein-protein interactions: dose-dependent disruption
[2]; listed as 483LM
  disruption of Mcl-1/Bak protein-protein interactions: disrupts
Bcl-xL [3]
  Ki: > 1000 nM
wild-type MEFs
  cell death: causes cell death
Bcl-2
  Ki: > 1000 nM
Panc-1 cells; Panc-1, 48 h
  combination effect with ABT-263: synergizes; also recorded: substantially shifted the dose-response curve
Panc-1 cells; Panc-1, ABT-263 in the presence of 483, 48 h
  improvement of IC50 of cell growth inhibition of ABT-263: more than 660 fold
[4]
  cell death / sensitization: led to sensitization; also recorded: selectively induces cell death
Endogenous Mcl-1 protein
  blocking of the binding of BL-Noxa to Mcl-1: dose-dependent blocked
Mcl-1 [5]; binding affinity to Mcl-1
  Ki: 7 ± 2 nM
[6]
  cytotoxicity: didn't show cytotoxicity
Bcl-xL [7]
  release of Smac in the Bcl-xL functional assay: fail to release Smac
Bcl-w
  Ki: > 1000 nM

## CC(C)c1cc(NC(=O)c2ccc(Oc3ccc(F)cc3)cc2)c(C(=O)O)cc1-c1ccc(COc2cccc(C(F)(F)F)c2)cc1 [Compound 487, 4-(4-(4-fluorophenoxy)benzamido)-6-isopropyl-4′-((3-(trifluoromethyl)phenoxy)methyl)-[1,1′-biphenyl]-3-carboxylic acid]
Mcl-1 [5]; Binding affinity of Mcl-1 inhibitors using FP based assay, Table 1
  Ki: 8 ± 2 nM
Bcl-xL [7]
  release of Smac in the Bcl-xL functional assay: fail to release Smac

## O=C(CSc1nnc(-c2ccco2)c(-c2ccco2)n1)Nc1ccccc1 [Compound E238, reference compound]
Mcl-1 [5]; [10]
  Ki: 2090 ± 180 nM
Mcl-1 [8]
  chemical shift perturbations in HSQC NMR spectrum: concentration-dependent perturbations

## CC1(C)CCC(c2ccc(Cl)cc2)=C(CN2CCN(c3ccc(C(=O)NS(=O)(=O)c4ccc(N[C@H](CCN5CCOCC5)CSc5ccccc5)c(S(=O)(=O)C(F)(F)F)c4)cc3)CC2)C1 [ABT-263, reference compound]
Mcl-1 knockout MEFs
  cytotoxicity / growth-inhibitory activity: increased growth-inhibitory activity
Panc-1 cells; Panc-1, 48 h
  effect on cell line, single agent: little effect

## CN(C)CC[C@H](CSc1ccccc1)Nc1ccc(S(=O)(=O)NC(=O)c2ccc(N3CCN(Cc4ccccc4-c4ccc(Cl)cc4)CC3)cc2)cc1[N+](=O)[O-] [ABT-737]
Mcl-1 [9]
  binding to Mcl-1: fails to bind

## O=C(O)c1cc(SCCc2ccccc2)ccc1NS(=O)(=O)c1ccccc1 [Compound 368, 5-(Phenethylthio)-2-(phenylsulfonamido)benzoic acid]
Mcl-1 [5]; [10]
  Ki: 490 ± 10 nM
Mcl-1 [8]
  chemical shift perturbations in HSQC NMR spectrum: large chemical shift perturbations

— patent US9884841B2, “Small molecule inhibitors of Mcl-1 and uses thereof” (The Regents of the University of Michigan, priority 2015, dated 2018)
